Measured values published in patent US20230128194A1, “METHODS AND COMPOSITIONS TO ALTER HEPATIC GABA RELEASE TO TREAT OBESITY-RELATED CONDITIONS” (ARIZONA BOARD OF REGENTS ON BEHALF OF THE UNIVERSITY OF …, priority 2017, published 2023).

Tests used:
[1] = molecular target: T1, Kir2.1 (Homo sapiens, UniProt P63252); assay: Barium induced change in hepatocyte membrane potential in Kir2.1 and eGFP expressing mice; assay type: in vivo, mouse; details: 50 μM bath application
T1 construct: host or cells: hepatocytes of wildtype mice in vivo, AAV8 with TBG promoter
T1 sequence (P63252 1-427): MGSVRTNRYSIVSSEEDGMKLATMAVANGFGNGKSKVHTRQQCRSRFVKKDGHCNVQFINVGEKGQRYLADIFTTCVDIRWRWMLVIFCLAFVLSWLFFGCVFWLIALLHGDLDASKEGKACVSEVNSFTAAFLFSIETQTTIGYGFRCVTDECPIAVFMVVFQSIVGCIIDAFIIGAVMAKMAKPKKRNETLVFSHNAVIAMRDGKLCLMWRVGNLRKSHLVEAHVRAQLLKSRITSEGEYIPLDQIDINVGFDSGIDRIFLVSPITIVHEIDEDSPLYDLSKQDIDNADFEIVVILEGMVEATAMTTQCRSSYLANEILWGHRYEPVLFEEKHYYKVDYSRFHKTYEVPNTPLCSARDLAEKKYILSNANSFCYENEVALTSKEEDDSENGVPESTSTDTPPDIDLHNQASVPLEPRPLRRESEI

[2] = test system: Na+/K+ ATPase; assay: liver slice GABA release with Na+/K+ ATPase inhibitor; assay type: cell-based, mouse; details: 1 mM, bath application
Description: Two liver slices were taken from each mouse.

[3] = test system: PSEM89S ligand-gated depolarizing channel; assay: PSEM89S ligand IP in mice with cre-dependent hepatic depolarizing channel: serum insulin, glucose; assay type: in vivo, mouse; details: 30 mg/kg IP
Description: (§1) The depolarizing channel (PSAM^L141F,Y115F-5 HT3HC), originally engineered by Dr. Scott Sternsons group, was made by mutating the acetylcholine binding domain of a chimeric channel that included the binding domain of the α7 nicotinic acetylcholine receptor and the ion pore domain of the serotonin receptor 3a. The ligand binding domain mutations (Leu^141→Phe and Tyr^115→Phe) limited the agonist action of acetylcholine and allowed for stimulation by a pharmacologically selective effector molecule PSEM89S. The exogenous ligand PSEM89S opens the serotonin receptor 3a channel allowing Na^+, K^+, and Ca^++ passage into the cell and membrane depolarization. AAV8 viral vectors were used for plasmid delivery in all the reported studies and were synthesized by the Penn Vector Core. Hepatic specific expression of the depolarizing channel was achieved through two different methods. First, expression of a cre-recombinase dependent depolarizing channel was driven by a globally expressed CAG promoter. LoxP sites limited expression to cre-recombinase expressing tissue, and tail vein injection of 1×10^10 viral genome copies established hepatocyte expression in albumin-cre but not wildtype mice. Second, a separate AAV8 viral vector, induced hepatic specific expression of the same depolarizing channel by driving expression using the thyroxine binding globulin (TBG) promoter. Tail vein injection of 1×10^11 viral genome copies established hepatocyte expression (FIG. 18C). The thyroxine binding globulin promoter also drove hepatic expression of the hyperpolarizing, inward-rectifier K^+ channel, Kir2.1. Tail vein injection of 1×10^11 viral genome copies established hepatocyte specific expression (FIG. 19A). To confirm channel expression and tissue specificity, all viral vector plasmids encoded for enhanced green fluorescent protein (eGFP).
All studies in virus injected mice were conducted at least 5 days post virus injection to allow for maximal channel expression. Individually housed mice were intraperitoneally injected with the ligand for the depolarizing channel (PSEM89S; 30 mg/kg; 0.1 mL/10 g body weight) or PBS (0.1 mL/10 g body weight).
Studies conducted in mice injected with the cre-dependent depolarizing channel virus took place at 8 am. […]
(§2) Within 2 hours of collection, blood was left to clot at room temperature for 20 minutes. […] Serum glucose was analyzed by colorimetric assay (Cat. #G7519, Pointe Scientific Inc., Canton Mich.). Serum insulin was analyzed by enzyme-linked immunosorbent assay (ELISA; Cat. #80-INSMSU-E01,E10, Alpco, Salem, N.H.). Serum glucagon was analyzed by enzyme-linked immunosorbent assay (ELISA; Cat. #10-1281-01, Mercodia, Uppsala, Sweden) from tail vein blood collected at 9 am from fed mice (Vagotomy study) or after a 4 hour fast at 1 PM (Kir2.1 study).

[4] = test system: PSEM89S ligand-gated depolarizing channel; assay: PSEM89S ligand IP before oral glucose in mice with TBG promoter driven depolarizing channel; assay type: in vivo, mouse; details: TBG channel expressing mice
Description: as §1, with “The thyroxine binding globulin promoter also drove hepatic expression of the hyperpolarizing, inward-rectifier K^+ channel, Kir2.1. Tail vein injection of 1×10^11 viral genome copies established hepatocyte specific expression (FIG. 19A). To confirm channel expression and tissue specificity, all viral vector plasmids encoded for enhanced green fluorescent protein (eGFP).” left out
as §2

[5] = test system: PSEM89S ligand-gated depolarizing channel; assay type: in vivo, mouse
Description: as §1, with “Tail vein injection of 1×10^11 viral genome copies established hepatocyte specific expression (FIG. 19A). To confirm channel expression and tissue specificity, all viral vector plasmids encoded for enhanced green fluorescent protein (eGFP).” left out
Simultaneous in vivo recordings were performed of hepatocyte membrane potential and hepatic afferent vagal nerve firing activity in anesthetized (isoflurane) mice to directly assess the effect of hepatocyte depolarization on hepatic afferent vagal nerve activity. […] After placement and sealing of the hook electrode, 45-60 minutes of basal nerve activity was monitored/recorded with pClamp software (version 10.2; Molecular Devices) until nerve activity stabilized, after which, treatments began. […]

[6] = test system: lean mice; assay: GABA-T inhibitors (8 mg/day oral gavage) in lean mice: glucose homeostasis; assay type: in vivo, mouse; details: 8 mg/day
Description: (§3) All animal studies were conducted using male wildtype C57BL/6J mice purchased from Jackson Laboratories or bred in-house (Bar Harbor, Me.). Mice were kept on a 14-hour light/10-hour dark schedule and housed 3-5 mice per cage until 1 week prior to study initiation, at which point animals were individually housed. Studies were conducted in lean chow fed mice (7013 NIH-31, Teklad WI, 3.1 kcal/g, 18% kcal from fat, 59% kcal from carbohydrate, 23% kcal from protein) at 12-16 weeks of age. Studies in diet-induced obese mice dosed intraperitoneally with GABA transaminase inhibitors, mice treated with ethanolamine-O-sulfate in their drinking water, and mice treated with GABA-T targeted or scramble control antisense oligonucleotides (ASO) were performed after 8-10 weeks on a high fat diet (TD 06414, Teklad WI, 5.1 kcal/g, 60.3% kcal from fat, 21.3% kcal from carbohydrate, 18.4% kcal from protein; 20-26 weeks of age). For ASO studies, mice were stratified by body weight and assigned to an injection treatment (control or GABA-T). Studies in obese vagotomy and sham mice were performed after 9 weeks of high fat diet feeding. Unless fasted, mice had ad libitum access to food and water. All studies were approved by The University of Arizona Institutional Animal Care and Use Committee.
(§4) Wildtype lean and obese mice were randomly divided into treatment groups and dosed daily with 8 mg of ethanolamine-O-sulfate (EOS; Sigma-Aldrich, St. Louis, Mo.), vigabatrin (United States Pharmacopeia, Rockville, Md.) or PBS. Obese sham and vagotomy mice were dosed daily with 8 mg of EOS. In all cases, basal bleeds were taken prior to initiation of an ITT. Lean mice received treatment by oral gavage (0.3 mL/mouse) while obese mice were treated by intraperitoneal injection (0.3 mL/mouse). Pre-treatment studies were conducted in the week immediately prior to beginning drug administration. Daily doses took place at 9 am each day and oral glucose tolerance tests (OGTT) and insulin tolerance tests (ITT) were performed on the third and fourth days of treatment in lean mice, respectively. In wildtype obese mice, OGTT and ITT were performed on the fourth day of treatment in separate cohorts. On the fifth day of treatment, 2DG clearance studies were performed. In sham/vagotomy mice, OGTT and ITT were performed on the fourth and fifth day of treatment, respectively. After a 2-week washout period without treatment injection, a basal bleed and bleed 15 minutes after an oral glucose gavage ([…]) to determine oral glucose stimulated insulin secretion were performed.
(§5) Oral glucose (2.5 g/kg; 0.1 mL/10 g body weight; Chem-Impex Int'l Inc., Wood Dale, Ill.) was given to 4 hour fasted individually housed mice. All glucose tolerance tests began at […] and glucose was measured in whole blood, collected from the tail vein, by glucometer (Manufacture #D2ASCCONKIT, Bayer, Leverkusen, Germany) at 0, 15, 30, 60, 90, and 120 minutes after glucose gavage. Blood for serum insulin (oral glucose stimulated insulin secretion; OGSIS) and glucose determination was collected from the tail vein 15 minutes following glucose administration.
(§6) Intraperitoneal insulin (0.5 U/kg; 0.1 mL/10 g body weight; Sigma Aldrich, St. Louis, Mo.) was given to 4 hour fasted individually housed mice. All insulin tolerance tests began at […] and glucose was measured in whole blood, collected from the tail vein, by glucometer (Manufacture #D2ASCCONKIT, Bayer, Leverkusen, Germany) at 0, 30, 60, 90, and 120 minutes after insulin injection.
(§7) Within 2 hours of collection, blood was left to clot at room temperature for 20 minutes. Thereafter, the blood was centrifuged at 3,000×g for 30 minutes at 4° C. and serum was collected. Serum was stored at −80° C. until metabolite and hormone analyses. A colorimetric assay was used to analyze serum glucose (Cat. #G7519, Pointe Scientific Inc., Canton Mich.). Serum insulin was analyzed by enzyme-linked immunosorbent assay (ELISA; Cat. #80-INSMSU-E01,E10, Alpco, Salem, N.H.). […]

[7] = test system: high fat diet-induced obese mice; assay: GABA-T inhibitors (8 mg/day IP) in HFD-induced obese mice: body weight, serum insulin/glucose/glucagon, OGTT, ITT; assay type: in vivo, mouse
Description: as §3, §4, §5, §6, §7

[8] = test system: lean mice and obese control or GABA-T ASO treated mice; assay: leptin sensitivity (single 6 am leptin injection): food intake, body weight; assay type: in vivo, mouse
Description: Lean mice or diet-induced obese control or GABA-T targeted ASO treated mice received an intraperitoneal injection of phosphate buffered saline (PBS; 0.1 mL/10 g body weight) on day 1 and leptin (2 mg/kg; 0.1 mL/10 g body weight; CAT#498-OB, R&D Systems, Minneapolis, Minn.) on day 2 at 6 am. Mice were not fasted before injections. Food and body weight were measured every day at 6 am and 6 pm.

[9] = albumin-cre channel expressing mice
[10] = 30 mg/kg IP 10 minutes before oral glucose 2.5 g/kg
[11] = 8 mg/day IP, four days, relative to pre-treatment
[12] = chow fed mice, single 6AM injection

[Ba+2] [Ba2+, Barium]
depolarization of hepatocytes ([1]; Kir2.1 expressing mice): 6.86±1.54 mV | change in hepatocyte membrane potential ([1]; control eGFP expressing mice): −0.62±1.86 mV

C[C@@H]1O[C@@H](O[C@H]2C[C@@H](O)[C@]3(CO)[C@H]4[C@H](O)C[C@]5(C)[C@@H](C6=CC(=O)OC6)CC[C@]5(O)[C@@H]4CC[C@]3(O)C2)[C@H](O)[C@H](O)[C@H]1O [Ouabain]
increase of liver slice GABA release (μmol/mg DNA) [2]: more than 40%

COc1ccc(OC)c(C(=O)N[C@@H]2CN3CCC2CC3)c1.O=C(O)C(F)(F)F [PSEM89S ligand]
serum glucose [3, 9]: decreased | serum insulin [3, 9]: more than doubled | glucose:insulin ratio ([3]; albumin-cre mice): decreased | serum insulin, glucose, or glucose:insulin ratio ([3]; wildtype mice): did not alter | glucose:insulin ratio [4, 10]: lowered | serum insulin [4, 10]: elevated | rise in serum glucose following oral glucose gavage ([4]; 30 mg/kg IP): did not affect | HVAN firing activity ([5]; 30 μM bath application, albumin-cre channel expressing mice): decreased | hepatocyte depolarization at 10 minutes ([5]; mouse, in vivo): 17.0±5.4 mV | maximal hepatocyte depolarization ([5]; mouse, in vivo): 28±5.4 mV

C=CC(N)CCC(=O)O (stereo not shown) [vigabatrin]
glucose tolerance [6]: no effect | insulin sensitivity [6]: no effect | serum insulin concentrations [6]: no effect | glucose:insulin ratio [7, 11]: increased | serum glucose [7, 11]: decreased | serum insulin [7, 11]: decreased | body weight ([7]; 8 mg/day IP, through 5 days, vs saline injected mice): remained similar | glucose stimulated serum insulin ([7]; treatment day 4, relative to pre-treatment): decreased | glucose stimulated serum insulin after washout ([7]; two-weeks washout): markedly increased | serum insulin and glucose:insulin ratio after washout ([7]; two-weeks washout): return of serum insulin and the glucose:insulin ratio to pre-treatment levels | insulin sensitivity assessed by insulin tolerance test (ITT) ([7]; within 4 days of initiating treatment): improved

leptin: anorexigenic hormone leptin (R&D Systems)
body weight [8, 12]: without affecting | light cycle and 24-hour food intake [8, 12]: decreased | relative weight change ([8]; control or GABA-T ASO obese mice, 2 mg/kg): not affected | food intake ([8]; obese mice on either ASO treatment, 2 mg/kg single 6AM injection, any timepoint): did not affect
